This passage reports IC50 results from BindingDB's records for doi:10.1021/acs.jmedchem.5b00659 (Taipei Medical University, 2015).

The term IC50 denotes the point on the concentration scale where inhibition reaches its midpoint. A higher IC50 goes with a need for much substance.

In this experiment the target is Signal transducer and activator of transcription 3 (Homo sapiens, UniProt P40763). The experiment can be described thus: Inhibition of STAT3 tyrosine phosphorylation in human A549 cells by sandwich ELISA method. In general terms: ELISA stands for enzyme-linked immunosorbent assay.
Sequence of Signal transducer and activator of transcription 3 (P40763 whole entry): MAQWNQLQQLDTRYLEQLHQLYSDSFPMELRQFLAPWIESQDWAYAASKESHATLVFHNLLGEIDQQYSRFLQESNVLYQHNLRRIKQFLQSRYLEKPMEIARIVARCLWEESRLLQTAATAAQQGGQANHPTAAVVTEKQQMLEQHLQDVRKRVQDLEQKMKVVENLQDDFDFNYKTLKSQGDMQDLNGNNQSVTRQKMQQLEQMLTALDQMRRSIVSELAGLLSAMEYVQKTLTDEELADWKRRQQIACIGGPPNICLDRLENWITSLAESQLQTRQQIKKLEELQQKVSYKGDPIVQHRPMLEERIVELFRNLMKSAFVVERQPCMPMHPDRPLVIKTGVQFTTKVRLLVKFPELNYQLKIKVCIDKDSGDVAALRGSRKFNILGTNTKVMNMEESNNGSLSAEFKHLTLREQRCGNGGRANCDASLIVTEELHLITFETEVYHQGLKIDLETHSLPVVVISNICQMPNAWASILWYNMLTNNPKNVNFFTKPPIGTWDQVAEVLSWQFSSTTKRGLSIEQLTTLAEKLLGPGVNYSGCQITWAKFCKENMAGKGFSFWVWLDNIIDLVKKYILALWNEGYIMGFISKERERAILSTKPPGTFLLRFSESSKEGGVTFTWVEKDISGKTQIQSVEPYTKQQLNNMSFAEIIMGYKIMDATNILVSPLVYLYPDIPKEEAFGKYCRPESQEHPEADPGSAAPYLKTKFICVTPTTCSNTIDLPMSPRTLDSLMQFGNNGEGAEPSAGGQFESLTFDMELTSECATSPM

Regarding `COc1ccc(S(=O)(=O)Nc2ccccc2-c2ccc(F)c(F)c2)cc1`, the IC50 was 2.75 µM. That is a single-digit micromolar value.
